Data on eleven molecules can be found in ChEMBL document CHEMBL1139193, “Application of the Suzuki-Miyaura cross-coupling to increase antimicrobial potency generates promising novel antibacterials” (Bioorg Med Chem Lett, 2007).

For orientation: MIC means the lowest concentration that inhibits growth of the organism. A lower MIC goes with a more susceptible organism. As usually defined, the EC50 is the concentration giving half of the maximal effect.

Each structure is given as a SMILES string. In brackets after ≈: the same amount, converted by molar mass. Activity calls are given as the source filed them. The calls are words filed in the database; no cut-off is given here. Where a SMILES comes first, the peptide text is derived from it. [ ]: non-standard residue; d: D form. Bip = N[C@@H](Cc1ccc(-c2ccccc2)cc1)C(=O)O; Phe(4-I) = N[C@@H](Cc1ccc(I)cc1)C(=O)O

Series [1] has as its system Staphylococcus epidermidis. Description: Antibacterial activity against methicillin-resistant Staphylococcus epidermidis. Format: functional.
Series [2] concerns Streptococcus pyogenes. Description: Antibacterial activity against Streptococcus pyogenes upto 100 ug/mL. Format: functional, organism-based.
In series [3] the test system is Staphylococcus aureus. Nature of the series: Antibacterial activity against Staphylococcus aureus upto 100 ug/mL. In kind it is functional, organism-based.
Series [4] has as its system Staphylococcus aureus. Description: Antibacterial activity against methicillin-resistant Staphylococcus aureus upto 100 ug/mL. In kind it is functional, organism-based.
Series [5] concerns Staphylococcus aureus. Description: Antibacterial activity against Staphylococcus aureus. Format: functional.
Series [6] deals with Streptococcus pyogenes. Nature of the series: Antibacterial activity against Streptococcus pyogenes. In kind it is functional.
Series [7] deals with Staphylococcus aureus. Nature of the series: Antibacterial activity against methicillin-resistant Staphylococcus aureus. Format: functional.
The nature of series [8]: Toxicity assessed as hemolysis of human erythrocytes. In kind it is cell-based, Erythrocyte.
Series [9] is described as follows: Toxicity assessed as hemolysis of human erythrocytes at 500 ug/mL. Format: cell-based, Erythrocyte. The conditions noted are these: read-out: Activity.

For `N=C(N)NCCC[C@H](NC(=O)[C@H](Cc1ccc(I)cc1)NC(=O)[C@@H](N)CCCNC(=N)N)C(N)=O` (H-Arg-[Phe(4-I)]-Arg-NH2), the MIC in [1] was determined as 116 µM (≈ 69.9 µg/mL). For the same molecule, the result in the series on Streptococcus pyogenes [2], with Staphylococcus aureus [3] and in the series with Staphylococcus aureus [4] was inactive.
In the case of `CC(C)(C)c1ccc(-c2ccc(C[C@H](NC(=O)[C@@H](N)CCCNC(=N)N)C(=O)N[C@@H](CCCNC(=N)N)C(N)=O)cc2)cc1`, the MIC is 4.1 µM (≈ 2.5 µg/mL) in series [1], 11 µM (≈ 6.7 µg/mL) in the series with Staphylococcus aureus [5], 25 µM (≈ 15.2 µg/mL) in the series with Streptococcus pyogenes [6] and 9.7 µM (≈ 5.91 µg/mL) in the series on Staphylococcus aureus [7].
With `N=C(N)NCCC[C@H](NC(=O)[C@H](Cc1ccc(-c2ccc3ccccc3c2)cc1)NC(=O)[C@@H](N)CCCNC(=N)N)C(N)=O`, the MIC in series [1] was 5 µM (≈ 3.01 µg/mL); against Staphylococcus aureus [5], 25 µM (≈ 15.1 µg/mL); against Staphylococcus aureus [7] it was 25 µM (≈ 15.1 µg/mL). For the same molecule, the outcome in the series with Streptococcus pyogenes [6] was inactive.
As to `N=C(N)NCCC[C@H](NC(=O)[C@H](Cc1ccc(-c2cccc3ccccc23)cc1)NC(=O)[C@@H](N)CCCNC(=N)N)C(N)=O`, the minimum inhibitory concentration (MIC) in series [1] was found to be 8.3 µM (≈ 5 µg/mL); in the series on Staphylococcus aureus [7] it was 29 µM (≈ 17.5 µg/mL). The result in the series with Staphylococcus aureus [5] and in the series on Streptococcus pyogenes [6] was inactive.
On to `N=C(N)NCCC[C@H](NC(=O)[C@H](Cc1ccc(-c2cccc(-c3ccccc3)c2)cc1)NC(=O)[C@@H](N)CCCNC(=N)N)C(N)=O`, for which the values for the minimal inhibitory concentration (MIC) (in series [1]; in the series on Staphylococcus aureus [5]; in the series with Staphylococcus aureus [7]) were 4.8 µM (≈ 3.02 µg/mL), 16 µM (≈ 10.1 µg/mL) and 11 µM (≈ 6.92 µg/mL), respectively. In addition, the result with Streptococcus pyogenes [6] was inactive.
Regarding `N=C(N)NCCC[C@H](NC(=O)[C@H](Cc1ccc(-c2ccc(-c3ccccc3)cc2)cc1)NC(=O)[C@@H](N)CCCNC(=N)N)C(N)=O`, the MIC in series [1] was 4.8 µM (≈ 3.02 µg/mL); in the series with Staphylococcus aureus [5], 9.1 µM (≈ 5.72 µg/mL); against Streptococcus pyogenes [6], 20 µM (≈ 12.6 µg/mL); against Staphylococcus aureus [7], 8.3 µM (≈ 5.22 µg/mL). Further, the EC50 in series [8] was 420 µg/mL (≈ 668 µM).
In the case of `N=C(N)NCCC[C@H](NC(=O)[C@H](Cc1ccc(-c2ccccc2-c2ccccc2)cc1)NC(=O)[C@@H](N)CCCNC(=N)N)C(N)=O`, the MIC in series [1] came out at 6.4 µM (≈ 4.02 µg/mL); against Staphylococcus aureus [5] it was 28 µM (≈ 17.6 µg/mL); in the series with Staphylococcus aureus [7], 24 µM (≈ 15.1 µg/mL). Also, the outcome in the series with Streptococcus pyogenes [6] was inactive.
As for `CCCCc1ccc(-c2ccc(C[C@H](NC(=O)[C@@H](N)CCCNC(=N)N)C(=O)N[C@@H](CCCNC(=N)N)C(N)=O)cc2)cc1`, the minimal inhibitory concentration (MIC) in [1] was determined as 4.1 µM (≈ 2.5 µg/mL); in the series on Staphylococcus aureus [5] it was 9 µM (≈ 5.48 µg/mL); in the series with Streptococcus pyogenes [6], 16 µM (≈ 9.74 µg/mL); against Staphylococcus aureus [7], 7 µM (≈ 4.26 µg/mL). Moreover, the hemolysis at 500 ug/mL in [9] was 40%.
In the case of `Cc1cc(C)cc(-c2ccc(C[C@H](NC(=O)[C@@H](N)CCCNC(=N)N)C(=O)N[C@@H](CCCNC(=N)N)C(N)=O)cc2)c1`, the minimum inhibitory concentration (MIC) in series [1] came out at 9 µM (≈ 5.23 µg/mL). Besides, the outcome with Staphylococcus aureus [5], in the series on Streptococcus pyogenes [6] and in the series on Staphylococcus aureus [7] was inactive.
Molecule `N=C(N)NCCC[C@H](NC(=O)[C@H](Cc1ccc(/C=C/c2ccccc2)cc1)NC(=O)[C@@H](N)CCCNC(=N)N)C(N)=O` returned a minimum inhibitory concentration (MIC) in [1] of 14 µM (≈ 8.1 µg/mL). Besides, the result in the series with Staphylococcus aureus [5], in the series on Streptococcus pyogenes [6] and in the series on Staphylococcus aureus [7] was inactive.
`N=C(N)NCCC[C@H](NC(=O)[C@H](Cc1ccc(-c2ccccc2)cc1)NC(=O)[C@@H](N)CCCNC(=N)N)C(N)=O` (H-Arg-[Bip]-Arg-NH2) had an MIC in series [1] of 59 µM (≈ 32.6 µg/mL). For the same molecule, the result in the series with Streptococcus pyogenes [2], in the series on Staphylococcus aureus [3] and with Staphylococcus aureus [4] was inactive.
